How the values were obtained:
Format in all cases: cell-based, human
CAP37 mRNA in HCEC = experiment: RT-PCR of CAP37 mRNA induction in HCEC
Protocol: (§1) To determine if pro-inflammatory cytokines could induce CAP37 in HCEC and keratocytes we treated these cell cultures with TNF-α (0-10 ng/ml, Boehringer-Mannheim, Indianapolis, Ind.) and IL-1β (0-20 ng/ml, ENDOGEN, Woburn, Mass.) for 0-24 hr and assayed the cells immunocytochemically for the presence of CAP37 protein as described above. Untreated cell cultures were included for each test sample. In addition to protein detection, upregulation of CAP37 mRNA in response to TNF-α and IL-1β was measured by RT-PCR as described below.
Cultured HCEC were treated with 5 ng/ml TNF-α and 10 ng/ml IL-1β for 0-8 hr at 37° C. Total cellular RNA was isolated from untreated and treated HCEC according to vendor specifications (TRIzol™, Gibco BRL). After reverse-transcription of 5 μg of total RNA by random oligonucleotide priming (hexanucleotide mix, BOEHRINGER-MANNHEIM, GmbH, Germany), the resulting single stranded cDNA was amplified by PCR (PERKIN ELMER 2400 thermocycler, Norwalk, Conn.) using CAP37 specific primers ([…] (SEQ ID NO:9) and […] (SEQ ID NO:10)) designed for a 597 bp internal fragment of HL60-CAP37 (34). The reaction conditions for reverse transcription were 80 units of RNAse inhibitor (SIGMA), 8 μl of 5× strand buffer, 2 μl of random hexanucleotide mix, 1 mM dNTPs (GIBCO BRL), 10 mM DTT (GIBCO BRL), and 400 units of M-MLV RT (GIBCO BRL) in a total volume of […]. The reaction mix was incubated at 37° C. for 50 min followed by incubation at 70° C. for 15 min. The PCR mix (1.5 mM MgCl2, 0.2 mM dNTPs, 1.26 μM of each primer and 1 unit Taq polymerase, GIBCO BRL) was amplified for 30 cycles. Amplified DNA fragments were separated by electrophoresis on a 1% agarose gel and visualized by exposure to UV after ethidium bromide (0.5 μg/ml) staining. To assess the integrity of the cDNA, primers for human β-actin were used.

[1] = system: CAP37 protein in stromal keratocytes; experiment: Immunocytochemical detection of CAP37 protein induction in stromal keratocytes
Protocol: (§2) For immunocytochemical analysis of HCEC and stromal keratocytes in culture, the cells were cultured on coverslips (CORNING COSTAR, Acton, Mass.) placed within 24-well tissue culture plates (CORNING COSTAR) until they reached 70% confluence and immunostained for CAP37 as described above except for the following changes. Cells were fixed in formol-acetone, pH 7.4 for 60 s at 4° C. (13) and were stained using the mouse anti-human CAP37 antiserum (1:500 dilution).
as §1

CAP37 protein in HCEC = experiment: Immunocytochemical detection of CAP37 protein induction in HCEC; conditions: for Time of maximum CAP37 protein induction: HCEC
Protocol: as §2, §1

PECAM-1 (CD31) = experiment: Flow cytometry of PECAM-1 expression on HCEC; conditions: TNF-α control, after 12 hr
Protocol: Flow cytometry was used to assess the upregulation of PECAM-1 (CD31), and the integrin molecules β1 (CD29), β2 (CD18), β3 (CD61), β4 (CD104), α1 (CD49a), α2 (CD49b), α3 (CD49c), α4 (CD 49d), and αv (CD51). Human corneal epithelial cells were cultured as above and treated with CAP37 (0-2000 ng/ml) for 0-72 hr. A corresponding culture was left untreated at each time point. Following treatment with CAP37, cells were detached with 0.25% trypsin in 1 mM EDTA (pH 7.4, FISHER SCIENTIFIC, Pittsburgh, Pa.), washed twice in PBS and fixed with 0.125% paraformaldehyde (J.T. BAKER, Phillipsburg, N.J.) overnight at 4° C. The cells were washed in PBS and then incubated in 0.5% normal goat serum and 0.5% bovine serum albumin (BSA) in PBS for 30 min to block non-specific binding sites. Cells were incubated in the primary antibody (at concentrations described below) at 4° C. for 1 hr followed by the secondary antibody (FITC-goat anti-mouse IgG, PHARMINGEN, San Diego, Calif.) at 0.5 μg/10^6 cells and incubated at 4° C. for 30 min. The isotype control for these studies was FITC-labeled mouse isotype IgG1 (PHARMINGEN). The cells were analyzed by flow cytometry (FACS Calibur, BECTON DICKINSON, San Jose, Calif.). At least ten thousand cells were analyzed for each sample. […]

| Substance | Initial expression of CAP37 mRNA post stimulation (CAP37 mRNA in HCEC; IL-1β 10 ng/ml) | CAP37 mRNA (CAP37 mRNA in HCEC; IL-1β 10 ng/ml, 6 hr) | Induction of CAP37 protein [1] | Time of maximum CAP37 protein induction (CAP37 protein in HCEC) | Time point at which expression of CAP37 protein was observed (CAP37 protein in HCEC; HCEC treated with IL-1β) | Earliest expression of CAP37 mRNA (CAP37 mRNA in HCEC; TNF-α 5 ng/ml) | Time of maximum CAP37 mRNA levels (CAP37 mRNA in HCEC; TNF-α 5 ng/ml, reduced by 4 hr) | Earliest detection of CAP37 protein (CAP37 protein in HCEC; HCEC treated with TNF-α) | Duration of effect on PECAM-1 expression (PECAM-1 (CD31)) |
| --- | --- | --- | --- | --- | --- | --- | --- | --- | --- |
| IL-1β: proinflammatory cytokine used to induce CAP37 | 1 h | can be detected | showed the induction of CAP37 protein | 24 h | 4 h |  |  |  |  |
| TNF-α |  |  | showed the induction of CAP37 protein | 24 h |  | 15 min | between 30 min and 2 hr | 60 min | more sustained, lasting until 24 hr |

— patent US7893027B2, “Treatment of ocular wounds and ulcers” (The Board of Regents of the University of Oklahoma, priority 2002, dated 2011)
